Results: patent US10697019B2, “Method of diagnosis and prognosis” (IMPERIAL COLLEGE INNOVATIONS LIMITED, priority 2011, dated 2020)
[ ]: non-standard residue; d: D form. The star is where a group is joined. Cbz = O=C(OCc1ccccc1)*

System: panel of 29 cancer cell lines
Assay: [3H]thymidine incorporation assay of Z-DTP-induced killing, correlated with Gadd45β mRNA expression (qRT-PCR)
Type: cell-based
Conditions: 10 μM Z-DTP2 for 144 hrs, Pearson correlation p<0.01
From the text: The significance of the correlation co-efficient between the two parameters is p<0.01 (Pearson correlation as calculated by GraphPad software).
For example, primary cell from multiple myeloma patients can be analysed for levels of Gadd45β expression, and patients with high levels of this expression can be deemed as those who will receive the most benefit from treatment with Gadd45β inhibitors.
In order to determine the basis for the different sensitivity of tumour cell lines to Z-DTP-induced killing, we measured levels of Gadd45β expression in a panel of 29 tumour cell lines or different tissues of origin by using quantitative real-time polymerase chain reaction (qRT-PCT) and correlated these levels with the degree of susceptibility of these cell lines to the cytotoxic activity of Z-DTPs. […] Experimental Ct values were normalized to β-actin, and relative mRNA expression calculated versus a reference sample (i.e. mRNA from HEK-293T cells). The sensitivity of cancer cell lines to Z-DTP-induced killing was analysed as described above by performing [^3H]thymidine incorporation assays after treatment of the cells with 10 μM of Z-DTP2 for 144 hrs. […] The significance of the correlation coefficient between the 2 parameters' domain was calculated by Pearson correlation, which quantifies the association between two variables, using the GraphPad software.

## Z-DTP2: tetrapeptide Tyr-Glu-Arg-Phe, amino acids in the D configuration, NH2 group at the C terminal, benzyloxycarbonyl group at the N terminal; specific Gadd45β inhibitor (Cbz-[dY][dE][dR][dF]-NH2)
  cancer cell sensitivity to Z-DTP-induced killing versus levels of endogenous Gadd45β expression: correlates with a very high degree of statistical significance
